Measured values reported in publication PMC3914206.

How the values were obtained:
Format in all cases: binding
panel of 442 kinases [1] = molecular target: T1, panel of 442 kinases (Homo sapiens, UniProt P00519, Q252H); settings: Compound Concentration 10 µM
T1 construct: purchased KINOMEscan
Excerpt: (§1) We assessed the selectivity of members of this scaffold using the KINOMEscan methodology across a near comprehensive panel of 442 kinases [[18,27]].

panel of 442 kinases [2] = molecular target: T2, panel of 442 kinases (Homo sapiens, UniProt P07947); settings: kinase YES; compound concentration 10 µM
T2 construct: purchased KINOMEscan
Excerpt: as §1

panel of 442 kinases [3] = molecular target: T3, panel of 442 kinases (Homo sapiens, UniProt Q8TDR2); settings: kinase STK35; compound concentration 10 µM
T3 construct: purchased KINOMEscan
Excerpt: as §1

T2 sequence (P07947 whole entry): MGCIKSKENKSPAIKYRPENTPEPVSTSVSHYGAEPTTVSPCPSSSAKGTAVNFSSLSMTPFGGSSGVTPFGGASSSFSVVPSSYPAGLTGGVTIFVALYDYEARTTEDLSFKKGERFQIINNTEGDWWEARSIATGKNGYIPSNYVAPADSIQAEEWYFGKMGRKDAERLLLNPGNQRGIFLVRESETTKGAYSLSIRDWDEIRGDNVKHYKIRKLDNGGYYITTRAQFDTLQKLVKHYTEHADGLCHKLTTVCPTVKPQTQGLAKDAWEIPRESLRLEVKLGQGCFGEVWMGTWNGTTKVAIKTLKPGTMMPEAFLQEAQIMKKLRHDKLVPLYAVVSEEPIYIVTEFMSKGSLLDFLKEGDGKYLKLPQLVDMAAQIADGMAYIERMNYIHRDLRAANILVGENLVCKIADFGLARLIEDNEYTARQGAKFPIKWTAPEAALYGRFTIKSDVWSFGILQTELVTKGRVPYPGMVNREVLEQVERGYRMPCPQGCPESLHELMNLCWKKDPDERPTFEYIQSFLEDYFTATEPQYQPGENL
T3 sequence (Q8TDR2 whole entry): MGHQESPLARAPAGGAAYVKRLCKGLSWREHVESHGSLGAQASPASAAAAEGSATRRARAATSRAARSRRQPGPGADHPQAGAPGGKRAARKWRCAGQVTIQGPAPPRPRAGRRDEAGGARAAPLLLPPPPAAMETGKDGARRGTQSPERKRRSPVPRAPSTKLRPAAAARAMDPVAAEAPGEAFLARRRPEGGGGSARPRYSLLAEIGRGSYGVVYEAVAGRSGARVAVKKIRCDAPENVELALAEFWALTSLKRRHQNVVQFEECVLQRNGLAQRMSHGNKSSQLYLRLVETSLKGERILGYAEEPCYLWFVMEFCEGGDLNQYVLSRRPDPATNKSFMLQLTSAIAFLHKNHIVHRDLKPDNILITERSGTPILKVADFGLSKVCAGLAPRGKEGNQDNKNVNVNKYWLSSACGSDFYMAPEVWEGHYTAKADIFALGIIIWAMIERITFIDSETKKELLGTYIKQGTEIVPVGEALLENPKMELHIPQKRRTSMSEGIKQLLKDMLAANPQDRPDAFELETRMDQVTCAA

Row | Structure (SMILES) | KINOMEscan: ABL1(Q252H)-nonphosphorylated (panel of 442 kinases [1]) | KINOMEscan: ABL1(Q252H)-phosphorylated (panel of 442 kinases [1]) | % Ctrl, YES (panel of 442 kinases [2]) | % Ctrl, STK35 (panel of 442 kinases [3])
1 | CCOc1cc(C(=O)N2CCC(N3CCN(C)CC3)CC2)ccc1Nc1ncc2c(n1)N(C1CCCC1)c1ccccc1C(=O)N2C [Compound 26] | 100 | 100 | 100 % Ctrl | 96 % Ctrl
2 | COc1cc(C(=O)N2CCC(N3CCN(C)CC3)CC2)ccc1Nc1ncc2c(n1)N(C1CCCC1)c1ccccc1C(=O)N2C [Compound 25, 11-cyclopentyl-2-((2-methoxy-4-(4-(4-methylpiperazin-1-yl)piperidine-1-carbonyl)phenyl)amino)-5-methyl-5H-benzo[e]pyrimido[5,4-b][1,4]diazepin-6(11H)-one] | 89 | 83 | 89 % Ctrl | 100 % Ctrl
3 | COc1cc(C(=O)N2CCC(N3CCN(C)CC3)CC2)ccc1Nc1ncc2c(n1)N1CCc3cccc(c31)C(=O)N2C [Compound 24] | – | – | 100 % Ctrl | 100 % Ctrl
4 | COc1cc(C(=O)N2CCC(N3CCN(C)CC3)CC2)ccc1Nc1ncc2c(n1)N(C)c1ccccc1C(=O)N2C [15 (LRRK2-IN-1)] | 100 | 100 | 100 % Ctrl | 100 % Ctrl
